Results as given in patent US12329158B2, “Large-scale methods of uniformly coating packaging surfaces with a volatile antimicrobial to preserve food freshness” (AGROFRESH INC., priority 2013, dated 2025).
Values after ≈ are worked out from the molar mass of the structure shown.

Key:
[1] = system: Penicillium digitatum; assay: Green mold on orange, contact assay (Example 25); assay type: in vivo; conditions: Contact (dip); rate not given; day 3 at 21 C after 5 days at 1 C
Experimental: (§1) A 250 mL solution of each concentration is used to dip two inoculated fruits, one minute per fruit, performed in triplicate per rate. The dipped fruits are then placed back into the clamshells and then into the SnapWare container and incubated at 1° C. for 5 days. […] Volatile application of Compound A results in excellent inhibition of browning and sporulation, whereas all other active ingredients result in no or little inhibition.

[2] = system: Botrytis cinerea; assay: Gray mold on strawberry, contact assay (Example 23); assay type: in vivo
Experimental: Eight strawberries (per repetition, in triplicate) are placed in an industry standard 1-lb PET clamshell with the stem-end facing down.
Contact Assay: Compound A is dissolved in 85% methanol to achieve a final concentration of 250, 50, 10, or 2 mg/L. A 250 mL solution of each concentration is used to dip eight inoculated strawberry fruit for one-minute, performed in triplicate per rate. The dipped fruits are then placed back into the clamshells, which are then placed in a secondary container and incubated at 1° C. for 5 days. After incubation, fruits are evaluated for disease severity (scale 0 to 4, with ≤1 indicating marketable fruit and 4 indicating ≥50% of fruit surface covered by pathogen) up to 4 days at 21° C.

[3] = system: M. piriformis; assay: Volatile MIC assay (Example 11); assay type: cell-based; conditions: Mucor piriformis
[4] = system: Penicillium expansum; assay: Blue mold on apple and pear, contact assay (Example 25); assay type: in vivo; conditions: Contact (dip); rate not given; day 3 at 21 C after 5 days at 1 C
Experimental: as §1

[5] = system: Xanthomonas axonopodis; assay: Volatile assay against bacterial pathogens, MBC (Example 12); assay type: cell-based; conditions: X. axonopodis; headspace concentration; 48 hours at 23 C
Experimental: (§2) 12-Well (6.5 mL volume per well) microtiter plates are used for the in vitro inhibition assay for volatile antimicrobial Compound A against additional bacterial pathogens. A 3-mL volume of Nutrient agar is added to each well and allowed to dry before introducing the pathogen. Escherichia coli, Pectobacterium carotovorum, Xanthomonas axonopodis and Salmonella enterica cell suspensions are adjusted to an optical density of 0.2 to 0.35, and further diluted 1/10, and 15 μL is pipetted to the center of each well and tilted to distribute uniformly. A Whatman #1 filter paper (CAT 1001-0155) is placed on the underside of a polyethylene PCR plate sealing film. […] The films with the treated disks are then applied over the inoculated plates and sealed. Plates are inverted, and incubated at 23° C. for 48 hours. After the incubation period, the bacteria colonies are dislodged in sterile water containing tween 80 (0.001%) and the optical density (OD; 600 nm) is determined. Results are summarized in Table 6, where the headspace concentration required to control at least 80% of bacterial growth is reported.

[6] = system: Escherichia coli; assay: as above; assay type: cell-based; conditions: E. coli; headspace concentration; 48 hours at 23 C
Experimental: as §2

[7] = system: Salmonella enterica; assay: as above; assay type: cell-based; conditions: S. enterica; headspace concentration; 48 hours at 23 C
Experimental: as §2

[8] = system: Pectobacterium carotovorum; assay: as above; assay type: cell-based; conditions: P. carotovorum; headspace concentration; 48 hours at 23 C
Experimental: as §2

[9] = system: P. expansum; assay: In vitro contact assay, amended agar (Example 24); assay type: cell-based; conditions: Penicillium expansum, 72 h; amended agar; 100% control; 3 days at 23 C; read-out: Contact MIC (mg/L) P. expansum
Experimental: (§3) Contact assay: 6-well (16.5 mL volume per well) microtiter plates are used for an in vitro inhibition assay. […] A 7.5-mL volume of the amended media is added to each well of the microtiter plate. […] The plates are sealed with a clear film and incubated for 3 days at 23° C. After incubation, plates are evaluate for percent growth relative to acetone only control.

[10] = system: B. cinerea; assay: In vitro contact assay, amended agar (Example 24); assay type: cell-based; conditions: Botrytis cinerea, 72 h; amended agar; 100% control; 3 days at 23 C; read-out: Contact MIC (mg/L) B. cinerea
Experimental: as §3

[11] = system: Botrytis cinerea; assay: In vitro volatile assay (Example 24); assay type: cell-based; conditions: 72 h, headspace, 100% control, 3 days at 23 C, read-out: Volatile MIC (mg/L) B. cinerea
Experimental: (§4) Volatile assay: 12-well (6.5 mL volume per well) microtiter plates are used. A 3-mL volume of half strength PDA is added to each well. […] A Whatman #1 filter disk (Cat. No. 1001-0155) is placed, in duplicate, on the underside of a polyethylene PCR plate sealing film. […] The acetone is permitted to evaporate for 5 minutes. The headspace around the inoculum is then sealed inside the well by the film with the adhering disk containing the fungicide. Plates are inverted, placed over the treated disks, and sealed to prevent any of the chemical from flaking from the disk and falling onto the inoculated agar. […] Contact assay: 6-well (16.5 mL volume per well) microtiter plates are used for an in vitro inhibition assay. […] A 7.5-mL volume of the amended media is added to each well of the microtiter plate. […] The plates are sealed with a clear film and incubated for 3 days at 23° C. After incubation, plates are evaluate for percent growth relative to acetone only control.

[12] = system: Penicillium expansum; assay: In vitro volatile assay (Example 24); assay type: cell-based; conditions: 72 h, headspace, 100% control, 3 days at 23 C, read-out: Volatile MIC (mg/L) P. expansum
Experimental: as §4

OB1OCc2cc(F)ccc21 [Compound A, 5-fluoro-1,3-dihydro-1-hydroxy-2,1-benzoxaborole] was tested, and the “Orange Sporulation (mm)” value [1] was >50 mm, the “Disease Severity (0 to 4)” value ([2]; 2 mg/L, Day 0) was 0.0 and the “Disease Severity (0 to 4)” value ([2]; 2 mg/L, Day 1) was 0.0. The “Disease Severity (0 to 4)” value ([2]; 2 mg/L, Day 2) was 0.6, the “Disease Severity (0 to 4)” value ([2]; 2 mg/L, Day 3) was 1.1 and the “Disease Severity (0 to 4)” value ([2]; 2 mg/L, Day 4) was 1.9. For the same compound, the “Disease Severity (0 to 4)” value ([2]; 10 mg/L, Day 0) was 0.0, the “Disease Severity (0 to 4)” value ([2]; 10 mg/L, Day 1) was 0.0 and the “Disease Severity (0 to 4)” value ([2]; 10 mg/L, Day 2) was 0.0. For the same compound, the “Disease Severity (0 to 4)” value ([2]; 10 mg/L, Day 3) was 0.3, the “Disease Severity (0 to 4)” value ([2]; 10 mg/L, Day 4) was 1.0 and the “Disease Severity (0 to 4)” value ([2]; 50 mg/L, Day 0) was 0.0. The “Disease Severity (0 to 4)” value ([2]; 50 mg/L, Day 1) was 0.0, the “Disease Severity (0 to 4)” value ([2]; 50 mg/L, Day 2) was 0.0 and the “Disease Severity (0 to 4)” value ([2]; 50 mg/L, Day 3) was 0.0. For the same compound, the “Disease Severity (0 to 4)” value ([2]; 50 mg/L, Day 4) was 0.0, the “Disease Severity (0 to 4)” value ([2]; 250 mg/L, Day 0) was 0.0 and the “Disease Severity (0 to 4)” value ([2]; 250 mg/L, Day 1) was 0.0. The “Disease Severity (0 to 4)” value ([2]; 250 mg/L, Day 2) was 0.0, the “Disease Severity (0 to 4)” value ([2]; 250 mg/L, Day 3) was 0.0 and the “Disease Severity (0 to 4)” value ([2]; 250 mg/L, Day 4) was 0.0. For the same compound, the MIC [3] was 1.1 µg/mL (≈ 7.24 µM), the “Apple Browning (mm)” value [4] was 9.9 mm and the “Apple Sporulation (mm)” value [4] was 2.3 mm. The “Pear Browning (mm)” value [4] was 18.9 mm, the “Pear Sporulation (mm)” value [4] was 8.4 mm and the “Rate (mg/L) offering at least 80% control” value (“Rate … at least 80% control” below) [5] was 4.5 mg/L. For the same compound, the “Rate … at least 80% control” value [6] was 35.7 mg/L, the “Rate … at least 80% control” value [7] was 17.9 mg/L and the “Rate … at least 80% control” value [8] was 2.2 mg/L. The MIC [9] was 0.4 mg/L (≈ 2.63 µM), the MIC [10] was < 0.08 mg/L and the MIC [11] was 0.3 mg/L (≈ 1.97 µM). It also gave an MIC [12] of 2.2 mg/L (≈ 14.5 µM).
